Data taken from patent publication US20250215177A1, “BLOWING AGENT, FOAMING RESIN COMPOSITION, POLYUREA RESIN FOAM, AND PRODUCTION METHOD FOR POLYUREA RESIN FOAM” (MITSUBISHI GAS CHEMICAL COMPANY, INC., priority 2022, published 2025).

How the values were obtained:
Assay type in all cases: physicochemical
[1] = Amine value of amine compound (JIS K7237-1995 titration); conditions: titration with 0.1 N perchloric acid-acetic acid
Description: The amine value was measured by the following measurement method according to JIS K7237-1995. • (1) 0.1 g of the amine compound was dissolved in 20 mL of acetic acid. • (2) The amine value was calculated by titrating the solution prepared in (1) above with 0.1 N perchloric acid-acetic acid solution using an automatic potentiometric titrator (AT-610 made by Kyoto Electronics Manufacturing Co., Ltd.)

[2] = Percentage increase of mass of amine compound left to stand in air (absorption of carbon dioxide); conditions: 23° C. and 50% RH
Text: Percentage increase of mass of cyclic amine compound (a1) [% by mass]=100×amount of increase of mass of cyclic amine compound (a1)(g)/(mass of cyclic amine compound (a1)(g)+amount of increase of mass of cyclic amine compound (a1)(g)).
[…] By doing so 1,3-BAC and carbon dioxide in the air were reacted to give a blowing agent (carbonate of 1,3-BAC). At that stage, to suppress uneven reaction, the container in which the amine compound was placed was shaken as necessary so as not to leave unreacted 1,3-BAC.
Next, the amount of increase of the mass of 1,3-BAC was measured and the percentage increase of the mass of the amine compound was calculated by the following equation.

[3] = Maximum carbon dioxide (CO2) release temperature of amine compound (DSC after CO2 absorption in air); conditions: amine compound after 24 hours in air at 23° C. and 50% RH; heating rate 10° C./minute, 23 to 250° C., nitrogen
Description: The cyclic amine compound (a1) with carbon dioxide absorbed is heated at a heating rate of 10° C./minute from 23° C. to 250° C., and the temperature at which the amount of heat absorbed due to desorption of carbon dioxide reaches the maximum is measured, and the temperature is defined as the maximum carbon dioxide release temperature. In this regard the cyclic amine compound (a1) with carbon dioxide absorbed may be prepared by leaving 5 mmol of the cyclic amine compound (a1) to stand in air at 23° C. and 50% RH for 24 hours.
A carbon dioxide detector and a Petri dish were placed in an openable desiccator (inner dimension: 370 mm×260 mm×272 mm). […]
Then the amine compound was taken out of the desiccator to give an amine compound with carbon dioxide absorbed. The maximum carbon dioxide release temperature of the amine compound with carbon dioxide absorbed was measured by subjecting the amine compound to DSC as described below. […] The temperature at which the amount of heat absorbed due to the desorption of carbon dioxide was the maximum was calculated from the DSC curve obtained, and the temperature was determined as the maximum carbon dioxide release temperature of the amine compound.

[4] = Maximum endothermic temperature of amine compound (DTA); conditions: heating rate 10° C./minute, 23 to 350° C., nitrogen; evaporation of amine compound
Description: The cyclic amine compound (a1) is heated at a heating rate of 10° C./minute from 23° C. to 350° C. and the temperature at which the amount of heat absorbed due to evaporation of the amine compound (a1) reaches the maximum is measured, and the temperature is defined as the maximum endothermic temperature of the amine compound (a1).
The maximum endothermic temperature of the amine compound was measured by subjecting the amine compound to DTA as described below. First, […] of the amine compound was performed under conditions of a temperature range of 23 to 350° C., a heating rate of 10° C./minute and a nitrogen atmosphere using a differential thermogravimeter (product name DTG-60 made by Shimadzu Corporation). The temperature at which the amount of heat absorbed due to the evaporation of the amine compound was the maximum was calculated from the DTA curve obtained, and the temperature was determined as the maximum endothermic temperature of the amine compound.

[5] = Acid dissociation constant (pKa) of amine compound (potentiometric titration); conditions: in purified water, 25±2° C.
Description: The acid dissociation constant of the amine compound was measured by the following measurement method. • (1) 0.2 g of the amine compound was dissolved in 30 mL of purified water. • (2) The acid dissociation constant (pKa) was calculated by titrating the solution prepared in (1) above with 0.1 N perchloric acid-acetic acid solution using an automatic potentiometric titrator (AT-610 made by Kyoto Electronics Manufacturing Co., Ltd.). The temperature in the measurement was 25±2° C.

Compound: NCC1CCCC(CN)C1 (stereo not shown) [1,3-BAC, 1,3-bis(aminomethyl)cyclohexane]
- Amine value [1]: 789 mgKOH/g
- Percentage increase of mass ([2]; CO2 absorption time 10 weeks): 22.5 % by mass

Compound: NCCN [Ethylenediamine, ethylenediamine]
- Maximum CO2 release temperature [3]: 103.4 °C
- Maximum endothermic temperature [4]: 126.7 °C
- pKa [5]: 9.8
- Percentage increase of mass ([2]; CO2 absorption time 1 week): 44.3 % by mass

Compound: NCc1cccc(CN)c1 [MXDA, metaxylylenediamine]
- Amine value [1]: 824 mgKOH/g
